Data as given in ChEMBL document CHEMBL4376876 (J Med Chem, 2020).

Molecular target: Enoyl-[acyl-carrier-protein] reductase [NADH] (Mycobacterium tuberculosis, UniProt P9WGR1, S94A)

Row | SMILES | IC50
1 | CC[C@H]1OC(=O)[C@H](C)[C@H](O)[C@H](Cc2cccnc2)NC(=O)[C@@H](NC(=O)c2ncccc2O)[C@@H](C)OC1=O | 127 µM
2 | CC[C@@H](C)[C@H]1OC(=O)[C@H](C)[C@H](O)[C@H](Cc2cccnc2)NC(=O)[C@@H](NC(=O)c2ncccc2O)[C@@H](C)OC1=O | 31.5 µM
3 | C[C@@H]1C(=O)N[C@H](C2CCCCC2)C(=O)O[C@H](C)[C@H](NC(=O)c2ncccc2O)C(=O)N[C@@H](Cc2cccnc2)[C@@H]1O | 291 µM
4 | CC[C@H](C)[C@H]1OC(=O)[C@H](C)[C@H](O)[C@H](Cc2cccnc2)NC(=O)[C@@H](NC(=O)c2ncccc2O)[C@@H](C)OC1=O | 87.2 µM
5 | C[C@H]1OC(=O)[C@@H](Cc2ccccc2)OC(=O)[C@H](C)[C@H](O)[C@H](Cc2cccnc2)NC(=O)[C@H]1NC(=O)c1ncccc1O | 29.1 µM
6 | CC(C)[C@H]1OC(=O)[C@H](C)[C@H](O)[C@H](Cc2cccnc2)NC(=O)[C@@H](NC(=O)c2ncccc2O)[C@@H](C)OC1=O | 32.8 µM
